The values below come from patent US10426717B2, “Glycol esters of dicaffeoylquinic acid and uses thereof” (PLANT ADVANCED TECHNOLOGIES PAT, priority 2016, dated 2019).

For series [1], the system named is fibroblasts NHDFs. Put plainly: Real time qPCR of Nrf-2 regulated genes (Example 3). Type of series: cell-based, human. As to conditions: 24 h, fraction at 50 μM, vs 0.5% DMSO control. The text has this:
In order to determine which fraction of the extract according to the invention is responsible for this effect, the expression variations of seven target markers (involved in cellular and skin ageing induced by four fractions of an Ipomoea batatas root extract, and by the extract itself, in fibroblasts have been measured by qRT-PCR. A condition corresponding to fibroblasts NHDFs irradiated with UVA (10 J/cm^2) has been analysed in parallel as a positive control for the test.
The seven markers studied (HOMX1, NQO1, HSPA1A, GCLM, GSTP1, UGT1A6 and NOS2) are genes the expression of which is known to be regulated by the transcription factor Nrf-2, playing a major role in the antioxidant defence.
(§1) The study has been made on human dermis fibroblasts NHDFs (ATCC, CRL-2522, origin: foreskin) at about 40% of their proliferative potential in vitro. These cells have been cultivated in single layer in DMEM medium (Invitrogen, 31885-049) containing 10% foetal calf serum (Invitrogen, 10270-106) and antibiotics (penicillin/streptomycin, Invitrogen, 15140-122). These cells have been maintained in a wet atmosphere at 37° C. containing 5% CO2.
The extraction of total RNAs has been made using the RNeasy kit (Qiagen, 74106), after 24 h treatment with the fractions or 6 h after UVA irradiation. The cells have been rinsed with PBS and lysed in ad hoc buffer (culture triplicates have been made for each condition). The extraction and purification of the RNAs have been made according to the supplier's instructions. The total RNAs have been preserved at −80° C. afterwards.
The real time qPCR method has been used to quantise the expression of target markers in the different populations of RNAs. The specific TaqMan probes have been synthesised by the company Applied Biosystems.
The target sequences of the genes of interest have been amplified by PCR by using the “TaqMan Gene Expression Assays” (Applied Biosystems). […] The TaqMan probes have been grafted with a fluorophore (FAM) at the 5′ end of the sequence with a 3′ fluorescence quencher. […]
On the technique in general: Quantitative PCR measures a nucleic acid by following its amplification.

Series [2] relates to human dermis fibroblasts NHDFs. Put plainly: Cytotoxicity study of the fractions, cell viability to MTS (Example 3). The series is classed as cell-based. The note with it: 24 h, 100, 50, 25, 12.5 and 6.25 μM, cytotoxicity threshold 80% viability. Here is the method:
as §1
In order to determine the optimum analysis concentration for the fractions, a preliminary experiment has been made on human dermis fibroblasts NHDFs having performed 30.3 population doublings. This study consisted in evaluating cell viability to MTS (3-(4,5-dimethythiazol-2-yl)-5-(3-carboxy-methoxyphenyl)-2-(4-sulphophenyl)-2H-tetrazolium) (Promega, G3581) after 24 h treatment for the 4 fractions, at 5 concentrations (100 μM, 50 μM, 25 μM, 12.5 μM, and 6.25 μM) and in culture triplicates (n=3). The fractions and extract have been prepared in DMSO and DPG70 respectively, the effect of these 2 vehicles has also been tested.
0.08% SDS (sodium dodecyl sulphate) has been used as a cytotoxicity positive control in order to validate the experiment.
In order to determine the optimum study concentration of the 4 fractions, a cytotoxicity study has been made on human dermis fibroblasts NHDFs, based on 5 concentrations after 24 h contact (n=3). The experimental parameters were identical to those used in the following for the study of the effects on the gene expression in terms of culture passages of the cells, confluence and contact time. The effect of the 2 vehicles (DPG70 and DMSO) has been tested in parallel.
The results have been compared to the untreated control and 0.08% SDS has been used as a cytotoxicity positive control in order to validate the experiment. The cytotoxicity threshold has been arbitrarily set to 80% viability.

For series [3], the system named is fibroblasts NHDFs. The experiment in a line: Induction of a radical stress by the actives, ROS with H2DCFDA probe. The note with it: fibroblasts treated with Trolox, normalised to MTS viability, vs 0.1% EtOH control. Type of series: cell-based, human. As for the experimental part: The study has been made on human dermis fibroblasts NHDFs (ATCC, CRL-2522, origin: foreskin) cultured in single layer in DMEM medium (Invitrogen, 31885-049) containing 10% foetal calf serum (Invitrogen, 10270-106) and antibiotics (Penicillin/Streptomycin, Invitrogen, 15140-122). These cells have been maintained in a wet atmosphere at 37° C. containing 5% CO2. In order to validate the hypothesis of a hormetic effect, it has been checked beforehand that the treatment by the actives alone induced a radical stress. The test used is based on the use of the fluorescent probe H2DCFDA (2′-7′dichlorodihydrofluorescein diacetate, Fischer Scientific, #D399). The probe diffusion into the cell enables its acetate group to be cleaved by intracellular esterases. […] The production of free radicals can thus be quantised by the level of fluorescence emitted by the probe oxidised. […] After rinsing, the fluorescence emitted has been quantised (excitation: 485 nm; emission: 520 nm). In order to provide a result representative of the cellular population of each condition, a cellular viability test (MTS) has been made immediately after quantising the fluorescence emitted. The fluorescence values have thus been normalised with respect to the cellular viabilities.

For the compound `O=C(/C=C/c1ccc(O)c(O)c1)OC1CC(O)(C(=O)O)CC(O)C1OC(=O)/C=C/c1ccc(O)c(O)c1` (stereo not shown) [STL964, 3,4-DCQ (Isochlorogenic acid B)], the “overexpression of genes of interest (HMOX1, HSPA1A, NQO1, GCLM, GSTP1; FIGS. 7 to 11)” value with fibroblasts NHDFs [1] was “do not induce an overexpression”. In addition, in series [2], the “cytotoxicity (cell viability to MTS)” value was “no cytotoxicity”.
On the same counts, the results for `O=C(/C=C/c1ccc(O)c(O)c1)OC1CC(O)(C(=O)O)CC(OC(=O)/C=C/c2ccc(O)c(O)c2)C1O` (stereo not shown) [STL965, 3,5-DCQ (Isochlorogenic acid A)] are “do not induce an overexpression” and “no cytotoxicity”.
On the same counts, the results for `O=C(/C=C/c1ccc(O)c(O)c1)OC1CC(O)(C(=O)O)CC(O)C1OC(=O)/C=C/c1ccc(O)c(O)c1` (stereo not shown) [STL967, 4,5-DCQ (Isochlorogenic acid C)] are “do not induce an overexpression” and “no cytotoxicity”.
Take `Cc1c(C)c2c(c(C)c1O)CCC(C)(C(=O)O)O2` (stereo not shown) [Trolox]: the “production of reactive oxygen species (ROS), radical stress” value in the series on fibroblasts NHDFs [3] was “no radical stress”.
